Assay results published in US20230172867A1, “A METHOD FOR TREATING CANCER WITH AN ORAL DOSAGE FORM OF AN FGFR4 INHIBITOR” (Eisai R&D Management Co., Ltd., priority 2020, published 2023).
Values joined by “and” are separate entries in the source; they are usually repeats but may differ in a detail not shown here. Equal entries are not always repeated.

System: patients with HCC
Assay: Tumor response / efficacy in patients with HCC (RECIST 1.1/modified RECIST), trial NCT02834780
Format: in vivo, human
Details: for Clinical Benefit Rate (CBR)(CR+PR+Durable SD): durable SD = stable disease ≥ 17 weeks; for clinical benefit rate / confirmed ORR: 55 HCC patients with ≥ 2 prior lines of therapy; for clinical benefit rate (complete response + partial response + durable stable disease) / confirmed overall response rate (ORR): 90 patients with HCC; for median OS / median PFS: HCC patients with ≥ 2 prior lines of therapy; for median overall survival (OS) / median progression-free survival (PFS): all HCC patients
Excerpt: A description of the first in human clinical trial for H3B-6527 can be found at the ClinicalTrials.gov by searching for trial identifier NCT02834780. In summary, the trial included a study population having the following characteristics: Adult patients ≥18 years old with advanced HCC or ICC; Progression after at least one prior therapy; ECOG score of 0 or 1; Well compensated liver function; FGF19-positive (dose expansion phase only); Excluded if patients have significant active infections [except hepatitis B virus (HBV) and hepatitis C virus (HCV)], gastric or esophageal varices, or previous FGF19-FGFR4 targeted therapy.
Drug Administration and Dosage for Dose Escalation: H3B-6527 was administered orally QD or BID on a 21-day cycle. Dose escalation followed a standard 3+3 cohort design with the dose cohorts of 300, 600, 1000, and 1400 mg QD fasting or 500 and 700 mg BID fed. Patients in dose escalation phase were treated regardless of FGF19 status. Response determined by RECIST 1.1/modified RECIST every 6 weeks

[1] = Expansion 1000 mg QD Fasted (N=10)

**Q.** `C=CC(=O)Nc1cc(N2CCN(CC)CC2)ccc1Nc1cc(N(C)C(=O)Nc2c(Cl)c(OC)cc(OC)c2Cl)ncn1` [H3B-6527, N-(2-((6-(3-(2,6-dichloro-3,5-dimethoxyphenyl)-1-methylureido)pyrimidin-4-yl)amino)-5-(4-ethylpiperazin-1-yl)phenyl)acrylamide] was tested. Which “Best Overall Response: Complete Response (CR)” value (“Best Overall Response … (CR)” for short) (300 mg QD Fasted (N=3)) did it give?
**A.** 0 (0.0) n (%)

**Q.** What about the “Best Overall Response: Not Evaluable” value (300 mg QD Fasted (N=3)) of the same molecule?
**A.** 0 (0.0) n (%)

**Q.** And the “Best Overall Response: Partial Response (PR)” value (“Best Overall Response … (PR)” for short) (300 mg QD Fasted (N=3))?
**A.** 0 (0.0) n (%)

**Q.** And the “Best Overall Response: Progressive Disease (PD)” value (from here on “Best Overall Response … (PD)”) (300 mg QD Fasted (N=3))?
**A.** 0 (0.0) n (%)

**Q.** What about the “Best Overall Response: Unknown” value (300 mg QD Fasted (N=3)) of the same molecule?
**A.** 0 (0.0) n (%)

**Q.** And the “Objective Response Rate (CR+PR)” value (300 mg QD Fasted (N=3))?
**A.** 0 (0.0) n (%)

**Q.** And the “Clinical Benefit Rate (CBR)(CR+PR+Durable SD)” value (300 mg QD Fasted (N=3))?
**A.** 1 (33.3) n (%)

**Q.** What about the “Best Overall Response … (CR)” value (600 mg QD Fasted (N=3)) of the same molecule?
**A.** 0 (0.0) n (%)

**Q.** And the “Best Overall Response: Not Evaluable” value (600 mg QD Fasted (N=3))?
**A.** 0 (0.0) n (%)

**Q.** What about the “Best Overall Response … (PR)” value (600 mg QD Fasted (N=3)) of the same molecule?
**A.** 0 (0.0) n (%)

**Q.** What about the “Best Overall Response … (PD)” value (600 mg QD Fasted (N=3)) of the same molecule?
**A.** 1 (33.3) n (%)

**Q.** What about the “Best Overall Response: Unknown” value (600 mg QD Fasted (N=3)) of the same molecule?
**A.** 0 (0.0) n (%)

**Q.** What about the “Objective Response Rate (CR+PR)” value (600 mg QD Fasted (N=3)) of the same molecule?
**A.** 0 (0.0) n (%)

**Q.** And the “Clinical Benefit Rate (CBR)(CR+PR+Durable SD)” value (600 mg QD Fasted (N=3))?
**A.** 2 (66.7) n (%)

**Q.** And the “Best Overall Response … (CR)” value (1000 mg QD Fasted (N=7))?
**A.** 0 (0.0) n (%)

**Q.** What about the “Best Overall Response: Not Evaluable” value (1000 mg QD Fasted (N=7)) of the same molecule?
**A.** 0 (0.0) n (%)

**Q.** And the “Best Overall Response … (PR)” value (1000 mg QD Fasted (N=7))?
**A.** 1 (14.3) n (%)

**Q.** And the “Best Overall Response … (PD)” value (1000 mg QD Fasted (N=7))?
**A.** 0 (0.0) n (%)

**Q.** What about the “Best Overall Response: Unknown” value (1000 mg QD Fasted (N=7)) of the same molecule?
**A.** 0 (0.0) n (%)

**Q.** What about the “Objective Response Rate (CR+PR)” value (1000 mg QD Fasted (N=7)) of the same molecule?
**A.** 1 (14.3) n (%)

**Q.** What about the “Clinical Benefit Rate (CBR)(CR+PR+Durable SD)” value (1000 mg QD Fasted (N=7)) of the same molecule?
**A.** 5 (71.4) n (%)

**Q.** And the “Best Overall Response … (CR)” value (1400 mg QD Fasted (N=4))?
**A.** 0 (0.0) n (%)

**Q.** And the “Best Overall Response: Not Evaluable” value (1400 mg QD Fasted (N=4))?
**A.** 0 (0.0) n (%)

**Q.** And the “Best Overall Response … (PR)” value (1400 mg QD Fasted (N=4))?
**A.** 1 (25.0) n (%)

**Q.** What about the “Best Overall Response … (PD)” value (1400 mg QD Fasted (N=4)) of the same molecule?
**A.** 0 (0.0) n (%)

**Q.** What about the “Best Overall Response: Unknown” value (1400 mg QD Fasted (N=4)) of the same molecule?
**A.** 0 (0.0) n (%)

**Q.** And the “Objective Response Rate (CR+PR)” value (1400 mg QD Fasted (N=4))?
**A.** 1 (25.0) n (%)

**Q.** What about the “Clinical Benefit Rate (CBR)(CR+PR+Durable SD)” value (1400 mg QD Fasted (N=4)) of the same molecule?
**A.** 3 (75.0) n (%)

**Q.** What about the clinical benefit rate (BID group) of the same molecule?
**A.** 25.8%

**Q.** And the “confirmed ORR” value (BID group)?
**A.** 0%

**Q.** And the “clinical benefit rate (complete response + partial response + durable stable disease)” value (BID group)?
**A.** 38%

**Q.** And the “confirmed overall response rate (ORR)” value (BID group)?
**A.** 0%

**Q.** What about the “median OS” value (BID group) of the same molecule?
**A.** 7.3 months

**Q.** What about the “median PFS” value (BID group) of the same molecule?
**A.** 2.8 months

**Q.** What about the “median overall survival (OS)” value (BID group) of the same molecule?
**A.** 8.0 months

**Q.** What about the “median progression-free survival (PFS)” value (BID group) of the same molecule?
**A.** 3.4 months

**Q.** And the “Best Overall Response … (CR)” value [1]?
**A.** 0 (0.0) n (%)

**Q.** What about the “Best Overall Response: Not Evaluable” value [1] of the same molecule?
**A.** 0 (0.0) n (%)

**Q.** And the “Best Overall Response … (PR)” value [1]?
**A.** 0 (0.0) n (%)

**Q.** What about the “Best Overall Response … (PD)” value [1] of the same molecule?
**A.** 1 (10.0) n (%)

**Q.** What about the “Best Overall Response: Unknown” value [1] of the same molecule?
**A.** 3 (30.0) n (%)

**Q.** And the “Objective Response Rate (CR+PR)” value [1]?
**A.** 0 (0.0) n (%)

**Q.** What about the “Clinical Benefit Rate (CBR)(CR+PR+Durable SD)” value [1] of the same molecule?
**A.** 2 (20.0) n (%)

**Q.** And the clinical benefit rate (QD group)?
**A.** 45.8%

**Q.** And the “confirmed ORR” value (QD group)?
**A.** 12.5%

**Q.** And the “clinical benefit rate (complete response + partial response + durable stable disease)” value (QD group)?
**A.** 52%

**Q.** What about the “confirmed overall response rate (ORR)” value (QD group) of the same molecule?
**A.** 8.3%

**Q.** What about the “median OS” value (QD group) of the same molecule?
**A.** 10.6 months

**Q.** And the “median PFS” value (QD group)?
**A.** 4.1 months

**Q.** And the “median overall survival (OS)” value (QD group)?
**A.** 11.1 months

**Q.** What about the “median progression-free survival (PFS)” value (QD group) of the same molecule?
**A.** 4.1 months

**Q.** What about the “Best Overall Response … (CR)” value (Total (N=27), QD fasted) of the same molecule?
**A.** 0 (0.0) n (%)

**Q.** What about the “Best Overall Response: Not Evaluable” value (Total (N=27), QD fasted) of the same molecule?
**A.** 0 (0.0) n (%)

**Q.** And the “Best Overall Response … (PR)” value (Total (N=27), QD fasted)?
**A.** 2 (7.4%) n (%) and 2 (7.4) n (%)

**Q.** What about the “Best Overall Response … (PD)” value (Total (N=27), QD fasted) of the same molecule?
**A.** 2 (7.4) n (%)

**Q.** What about the “Best Overall Response: Unknown” value (Total (N=27), QD fasted) of the same molecule?
**A.** 3 (11.1) n (%)

**Q.** What about the “Objective Response Rate (CR+PR)” value (Total (N=27), QD fasted) of the same molecule?
**A.** 2 (7.4) n (%)

**Q.** What about the “Clinical Benefit Rate (CBR)(CR+PR+Durable SD)” value (Total (N=27), QD fasted) of the same molecule?
**A.** 13 (48.1) n (%)
